The results in this text go back to US20240287138A1, “CYCLIC PEPTIDES FOR INHIBITING TNF RECEPTOR 1 ACTIVITY” (Merck Sharp & Dohme LLC, priority 2023, published 2024).

Numbered stars: 1 amine (or outer) side, 2 acyl side, 3 side chain; on linkers, the order of the positions; unused ones are H or OH. Bridge positions count the residues as written; N and C are the ends. Square brackets hold non-standard residues; d marks the D form. Peptide text beside a SMILES is read from it. Trp(βS-Me,7-OMe) = COc1cccc2c([C@H](C)[C@H](N)C(=O)O)c[nH]c12; X5 = COc1cccc2[nH]cc([C@H](C)[C@H](N[*:1])C(=O)[*:2])c12; Trp(βS-Me) = C[C@@H](c1c[nH]c2ccccc12)[C@H](N)C(=O)O; Phe(4-CH2COOH) = N[C@@H](Cc1ccc(CC(=O)O)cc1)C(=O)O; Trp(7-Cl) = N[C@@H](Cc1c[nH]c2c(Cl)cccc12)C(=O)O; Phe(3-CONH2) = NC(=O)c1cccc(C[C@H](N)C(=O)O)c1; Phe(4-CONH2) = NC(=O)c1ccc(C[C@H](N)C(=O)O)cc1; Phe(4-COOH) = N[C@@H](Cc1ccc(C(=O)O)cc1)C(=O)O; Trp(7-aza) = N[C@@H](Cc1c[nH]c2ncccc12)C(=O)O; Phe(4-CH2NH2) = NCc1ccc(C[C@H](N)C(=O)O)cc1; Pip(5R-OH) = O=C(O)[C@@H]1CC[C@@H](O)CN1; αMeW = C[C@](N)(Cc1c[nH]c2ccccc12)C(=O)O; Pip(4-aza) = O=C(O)[C@@H]1CNCCN1; 4Pal = N[C@@H](Cc1ccncc1)C(=O)O; NMeE = CN[C@@H](CCC(=O)O)C(=O)O; Cit = NC(=O)NCCC[C@H](N)C(=O)O; NMeS = CN[C@@H](CO)C(=O)O; Pip = O=C(O)[C@@H]1CCCCN1; αMeS = C[C@](N)(CO)C(=O)O; Nle = CCCC[C@H](N)C(=O)O; Sar = CNCC(=O)O

As usually defined, the IC50 is the concentration that gives 50% inhibition.

This assay addresses T1, TNFα-induced NF-κB signal transduction pathway (TNFR1 signaling) in THP-1 cells (Homo sapiens, UniProt P19438).
T1 sequence (P19438 30-455): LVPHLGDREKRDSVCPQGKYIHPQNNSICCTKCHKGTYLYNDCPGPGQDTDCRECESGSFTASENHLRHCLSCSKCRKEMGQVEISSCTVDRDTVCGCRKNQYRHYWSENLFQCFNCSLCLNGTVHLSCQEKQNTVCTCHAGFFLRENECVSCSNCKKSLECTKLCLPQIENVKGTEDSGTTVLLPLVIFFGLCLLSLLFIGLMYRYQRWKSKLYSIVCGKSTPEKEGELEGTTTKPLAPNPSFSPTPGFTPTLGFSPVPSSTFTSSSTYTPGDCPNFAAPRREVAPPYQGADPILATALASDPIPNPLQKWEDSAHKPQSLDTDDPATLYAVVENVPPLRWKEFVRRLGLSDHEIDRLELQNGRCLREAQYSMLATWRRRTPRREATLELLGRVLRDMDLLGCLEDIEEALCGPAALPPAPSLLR
Kind of assay: THP-1 Lucia NF-κB reporter cell assay, inhibition of TNFα-induced NF-κB signaling. The conditions noted are these: THP-1 NF-κB Lucia reporter cells, 10 ng/mL TNFα, 16-18 h, secreted luciferase; read-out: THP-1 IC50. Type of assay: cell-based. In outline:
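THP-1 Lucia NF-κB cells, 20k/well, no selection antibiotics; peptide pre-inc 1 h 37 °C; + recombinant human TNFα 10 ng/mL final; o.n.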
For `CCCC[C@@H]1NC(=O)CSC[C@@H](C(N)=O)NC(=O)[C@H]([C@@H](C)c2c[nH]c3c(OC)cccc23)NC(=O)CN(C)C(=O)[C@H](Cc2ccc(O)cc2)NC(=O)[C@H](Cc2ccc(C(=O)O)cc2)NC(=O)[C@](C)(CO)NC(=O)[C@H](Cc2c[nH]c3c(Cl)cccc23)NC(=O)[C@H](Cc2ccncc2)NC(=O)[C@H](CC(N)=O)NC(=O)[C@H]2CCCN2C(=O)[C@H](Cc2c[nH]c3ccccc23)NC(=O)[C@@H]2CC[C@@H](O)CN2C(=O)[C@H](Cc2ccncc2)NC1=O` [SEQ ID NO. 203] ({CH2CO}-[Nle][4Pal][Pip(5R-OH)]W[dP]N[4Pal][Trp(7-Cl)][αMeS][Phe(4-COOH)]Y[Sar][Trp(βS-Me,7-OMe)]C-NH2; thioether N-14), the IC50 came out at 1.6 nM. Then `CCCC[C@@H]1NC(=O)CSC[C@@H](C(N)=O)NC(=O)[C@](C)(Cc2c[nH]c3ccccc23)NC(=O)CN(C)C(=O)[C@H](Cc2ccc(O)cc2)NC(=O)[C@H](Cc2cccc(C(N)=O)c2)NC(=O)[C@](C)(CO)NC(=O)[C@H](Cc2c[nH]c3c(Cl)cccc23)NC(=O)[C@H](Cc2ccncc2)NC(=O)[C@H](CC(N)=O)NC(=O)[C@H](CCC(=O)O)N(C)C(=O)[C@H](Cc2c[nH]c3ncccc23)NC(=O)[C@H](CO)NC(=O)[C@H](Cc2ccc(CN)cc2)NC1=O` [SEQ ID NO. 205] ({CH2CO}-[Nle][Phe(4-CH2NH2)]S[Trp(7-aza)][NMeE]N[4Pal][Trp(7-Cl)][αMeS][Phe(3-CONH2)]Y[Sar][αMeW]C-NH2; thioether N-14), with 7.2 nM; and `CCCC[C@@H]1NC(=O)CSC[C@@H](C(N)=O)NC(=O)[C@H]([C@@H](C)c2c[nH]c3cccc(OC)c23)NC(=O)CN(C)C(=O)[C@H](Cc2ccc(O)cc2)NC(=O)[C@H](Cc2ccc(C(N)=O)cc2)NC(=O)[C@](C)(CO)NC(=O)[C@H](Cc2c[nH]c3c(Cl)cccc23)NC(=O)[C@H](Cc2ccc(C(=O)O)cc2)NC(=O)[C@H](CC(N)=O)NC(=O)[C@H](CCC(=O)O)N(C)C(=O)[C@H](Cc2c[nH]c3ncccc23)NC(=O)[C@H](CO)N(C)C(=O)[C@H](Cc2ccncc2)NC1=O` [SEQ ID NO. 209] ({CH2CO}-[Nle][4Pal][NMeS][Trp(7-aza)][NMeE]N[Phe(4-COOH)][Trp(7-Cl)][αMeS][Phe(4-CONH2)]Y[Sar][X5]C-NH2; thioether N-14), with 2.7 nM. Then `CCCC[C@@H]1NC(=O)CSC[C@@H](C(N)=O)NC(=O)[C@H]([C@@H](C)c2c[nH]c3c(OC)cccc23)NC(=O)CN(C)C(=O)[C@H](Cc2ccc(O)cc2)NC(=O)[C@H](Cc2ccc(C(=O)O)cc2)NC(=O)[C@](C)(CO)NC(=O)[C@H](Cc2c[nH]c3c(Cl)cccc23)NC(=O)[C@H](Cc2ccc(CC(=O)O)cc2)NC(=O)[C@H](CC(N)=O)NC(=O)[C@H](CCC(=O)O)N(C)C(=O)[C@H](Cc2c[nH]c3ccccc23)NC(=O)[C@@H]2CCCCN2C(=O)[C@H](Cc2ccncc2)NC1=O` [SEQ ID NO. 212] ({CH2CO}-[Nle][4Pal][Pip]W[NMeE]N[Phe(4-CH2COOH)][Trp(7-Cl)][αMeS][Phe(4-COOH)]Y[Sar][Trp(βS-Me,7-OMe)]C-NH2; thioether N-14), with 2.8 nM; and `C[C@@H](c1c[nH]c2ccccc12)[C@@H]1NC(=O)CN(C)C(=O)[C@H](Cc2c[nH]cn2)NC(=O)[C@H](Cc2ccc(C(=O)O)cc2)NC(=O)[C@](C)(CO)NC(=O)[C@H](Cc2c[nH]c3c(Cl)cccc23)NC(=O)[C@H](Cc2ccc(C(=O)O)cc2)NC(=O)[C@H](CC(N)=O)NC(=O)[C@H]2CCCN2C(=O)[C@H]([C@@H](C)c2c[nH]c3ccccc23)NC(=O)[C@H](CO)NC(=O)[C@H](Cc2ccc(CN)cc2)NC(=O)[C@H](CCCNC(N)=O)NC(=O)CSC[C@@H](C(N)=O)NC1=O` [SEQ ID NO. 215] ({CH2CO}-[Cit][Phe(4-CH2NH2)]S[Trp(βS-Me)][dP]N[Phe(4-COOH)][Trp(7-Cl)][αMeS][Phe(4-COOH)]H[Sar][Trp(βS-Me)]C-NH2; thioether N-14), with 9.7 nM; and `CCCC[C@@H]1NC(=O)CSC[C@@H](C(N)=O)NC(=O)[C@H]([C@@H](C)c2c[nH]c3c(OC)cccc23)NC(=O)CN(C)C(=O)[C@H](Cc2ccc(O)cc2)NC(=O)[C@H](Cc2ccc(C(=O)O)cc2)NC(=O)[C@](C)(CO)NC(=O)[C@H](Cc2c[nH]c3c(Cl)cccc23)NC(=O)[C@H](Cc2ccc(OC)cc2)NC(=O)[C@H](CC(N)=O)NC(=O)[C@H](CCC(=O)O)N(C)C(=O)[C@H](Cc2c[nH]c3ccccc23)NC(=O)[C@@H]2CNCCN2C(=O)[C@H](Cc2ccncc2)NC1=O` [SEQ ID NO. 218] ({CH2CO}-[Nle][4Pal][Pip(4-aza)]W[NMeE]NY(Me)[Trp(7-Cl)][αMeS][Phe(4-COOH)]Y[Sar][Trp(βS-Me,7-OMe)]C-NH2; thioether N-14), with 3.4 nM.
